In brackets after ≈: the same amount, converted by molar mass. Blank lines part the entries; values can stand above or below the molecule they belong to.
Experiments:
Assay in all cases: ≥ marks a high value that may be exact or a test limit, other limits are often not marked, values filed in µg/mL are converted to µM
[1] = tested on: Escherichia coli ATCC 25922
[2] = tested on: Staphylococcus epidermidis RP62A
[3] = tested on: Candida albicans ATCC 90028
[4] = tested on: Proteus mirabilis ATCC 25933
[5] = tested on: Enterococcus faecalis ATCC 29212
[6] = tested on: Klebsiella pneumoniae KK3 9904
[7] = tested on: Enterobacter cloacae HNTCC 53001
[8] = tested on: Pseudomonas aeruginosa ATCC 27853
[9] = tested on: Staphylococcus aureus NCTC 8325
[10] = tested on: Streptococcus sanguinis ATCC 49295
[11] = tested on: Streptococcus mutans GS-5
[12] = tested on: Streptococcus gordonii ATCC 10558
[13] = tested on: Aspergillus fumigatus
[14] = tested on: Escherichia coli ATCC 11775
[15] = tested on: Botrytis cinerea
[16] = tested on: Staphylococcus aureus ATCC 12600
[17] = tested on: Candida albicans ATCC 10231
[18] = tested on: Pseudomonas aeruginosa ATCC 9027
[19] = tested on: Escherichia coli ATCC 2592
[20] = tested on: Micrococcus luteus ATCC 9341
[21] = tested on: Candida albicans ATCC 36232
[22] = tested on: Pseudomonas syringae pv. syringae EPS 94
[23] = tested on: Xanthomonas campestris pv. Vesicatoria 2133-2
[24] = tested on: Erwinia amylovora PMV 6076
[25] = tested on: Pseudomonas aeruginosa
[26] = tested on: Bacillus subtilis
[27] = tested on: Staphylococcus epidermidis
[28] = tested on: Salmonella typhimurium
[29] = tested on: Proteus vulgaris
[30] = tested on: Streptococcus pyogenes
[31] = tested on: Escherichia coli
[32] = tested on: Candida albicans
[33] = tested on: Klebsiella pneumoniae ATCC 700603
[34] = tested on: Enterobacter cloacae ATCC 13047

MIC [1]: 5 µM (≈ 13.5 µg/mL) | MIC [2]: 20 µM (≈ 54 µg/mL) | MIC [3]: ≥ 80 µM | MIC [4]: ≥ 80 µM | MIC [5]: > 80 µM | MIC [6]: 5 µM (≈ 13.5 µg/mL) | MIC [7]: 10 µM (≈ 27 µg/mL) | MIC [8]: 10 µM (≈ 27 µg/mL) | MIC [9]: ≥ 40 µM
SMILES: CC[C@H](C)[C@H](NC(=O)CNC(=O)[C@H](CCC(N)=O)NC(=O)[C@H](Cc1ccccc1)NC(=O)[C@@H](NC(=O)[C@H](CCCCN)NC(=O)[C@H](CCCCN)NC(=O)[C@H](CC(C)C)NC(=O)[C@H](C)NC(=O)[C@H](CCCCN)NC(=O)[C@H](CC(C)C)NC(=O)CN)C(C)C)C(=O)N[C@@H](Cc1cnc[nH]1)C(=O)N[C@@H](CCCCN)C(=O)N[C@@H](C)C(=O)N[C@H](C(=O)N[C@@H](CCCCN)C(=O)N[C@@H](CC(C)C)C(=O)N[C@H](C(=O)N[C@@H](CC(N)=O)C(=O)N[C@@H](CC(N)=O)C(=O)N[C@@H](Cc1cnc[nH]1)C(=O)N[C@H](C(=O)N[C@@H](CCC(N)=O)C(=O)O)C(C)C)[C@@H](C)CC)[C@@H](C)CC [GLKALKKVFQGIHKAIKLINNHVQ]

MIC [10]: ≥ 101 µM | MIC [1]: 18.2 µM (≈ 25 µg/mL) | MIC [11]: ≥ 34.9 µM | MIC [12]: ≥ 46.6 µM | MIC [5]: 72.8 µM (≈ 100 µg/mL) | MIC [13]: 5 µM (≈ 6.87 µg/mL)
SMILES: CC(C)[C@H](NC(=O)[C@H](CO)NC(=O)[C@H](CCCN=C(N)N)NC(=O)[C@H](CCCN=C(N)N)NC(=O)[C@H](CCCN=C(N)N)NC(=O)[C@H](CCCN=C(N)N)NC(=O)CN)C(=O)N[C@@H](CCC(N)=O)C(=O)N[C@@H](Cc1c[nH]c2ccccc12)C(=O)N[C@@H](CS)C(=O)N[C@@H](C)C(=O)O [GRRRRSVQWCA]

MIC [1]: 50 µM (≈ 128 µg/mL) | MIC [2]: ≥ 200 µM | MIC [3]: ≥ 200 µM | MIC [4]: ≥ 200 µM | MIC [5]: > 200 µM | MIC [6]: ≥ 100 µM | MIC [7]: ≥ 50 µM | MIC [8]: 100 µM (≈ 256 µg/mL) | MIC [9]: ≥ 200 µM
SMILES: CC[C@H](C)[C@H](NC(=O)[C@H](CC(=O)O)NC(=O)[C@@H](NC(=O)[C@@H](NC(=O)CN)C(C)C)C(C)C)C(=O)N[C@@H](CC(C)C)C(=O)N[C@@H](CCCCN)C(=O)NCC(=O)N[C@@H](C)C(=O)N[C@@H](C)C(=O)N[C@@H](CCCCN)C(=O)N[C@@H](CC(=O)O)C(=O)N[C@@H](CC(C)C)C(=O)N[C@@H](C)C(=O)NCC(=O)N[C@@H](Cc1c[nH]cn1)C(=O)N[C@@H](CC(C)C)C(=O)N[C@@H](C)C(=O)N[C@H](C(=O)N[C@@H](CCCCN)C(=O)N[C@H](C(=O)N[C@@H](CCSC)C(=O)N[C@@H](CC(N)=O)C(=O)N[C@@H](CCCCN)C(=O)N[C@@H](CC(C)C)C(N)=O)C(C)C)[C@@H](C)O [GVVDILKGAAKDLAGHLATKVMNKL]

MIC [14]: ≥ 200 µM | MIC [15]: ≥ 200 µM | MIC [16]: ≥ 200 µM | MIC [17]: > 200 µM
SMILES: CC[C@H](C)[C@H](N)C(=O)N[C@@H](CC(N)=O)C(=O)N1CCC[C@H]1C(=O)N[C@@H](CCCCN)C(=O)N[C@@H](CO)C(=O)N[C@H](C(=O)N[C@@H](CCC(N)=O)C(=O)N[C@@H](CO)C(=O)N[C@@H](CC(C)C)C(=O)N[C@@H](CC(C)C)C(N)=O)C(C)C [INPKSVQSLL]

MIC [18]: > 163 µM | MIC [19]: ≥ 163 µM | MIC [20]: ≥ 163 µM | MIC [21]: ≥ 163 µM
SMILES: CC(C)C[C@H](NC(=O)[C@H](CS)NC(=O)[C@H](Cc1cnc[nH]1)NC(=O)[C@H](C)NC(=O)[C@H](C)NC(=O)[C@H](CS)NC(=O)[C@H](C)NC(=O)[C@H](C)NC(=O)[C@@H](N)CCCCN)C(=O)N[C@@H](Cc1c[nH]c2ccccc12)C(=O)N[C@@H](CCCN=C(N)N)C(N)=O [KAACAAHCLWR]

MIC [22]: 14.1 µM (≈ 46.8 µg/mL) | MIC [23]: 14.1 µM (≈ 46.8 µg/mL) | MIC [24]: 14.1 µM (≈ 46.8 µg/mL)
SMILES: CC[C@H](C)[C@H](NC(=O)[C@H](CCCCN)NC(=O)[C@H](CCCCN)NC(=O)[C@H](Cc1ccccc1)NC(=O)[C@H](CC(C)C)NC(=O)[C@H](CCCCN)NC(=O)[C@H](CCCCN)NC(=O)[C@H](CC(C)C)NC(=O)[C@H](Cc1ccc(O)cc1)NC(=O)[C@H](CCCCN)NC(=O)[C@H](CC(C)C)NC(=O)[C@@H](NC(=O)[C@H](CCCCN)NC(=O)[C@H](CCCCN)NC(=O)[C@H](Cc1ccccc1)NC(=O)[C@H](CC(C)C)NC(=O)[C@H](CCCCN)NC(=O)[C@@H](N)CCCCN)[C@@H](C)CC)C(=O)N[C@@H](CC(C)C)C(=O)N[C@@H](CCCCN)C(=O)N[C@@H](Cc1ccc(O)cc1)C(=O)N[C@@H](CC(C)C)C(=O)N[C@@H](CCCCN)C(=O)N[C@@H](CC(=O)O)C(=O)N[C@@H](CCC(=O)O)C(=O)N[C@@H](CC(C)C)C(=O)O [KKLFKKILKYLKKLFKKILKYLKDEL]

MIC [25]: 16 µM (≈ 37.3 µg/mL) | MIC [26]: ≥ 64 µM | MIC [27]: ≥ 64 µM | MIC [28]: 0.5 µM (≈ 1.17 µg/mL) | MIC [29]: 2 µM (≈ 4.67 µg/mL) | MIC [30]: ≥ 64 µM | MIC [31]: 0.5 µM (≈ 1.17 µg/mL)
SMILES: CC(C)C[C@H](NC(=O)[C@H](CCCN=C(N)N)NC(=O)[C@@H]1CCCN1C(=O)[C@H](Cc1cnc[nH]1)NC(=O)[C@@H]1CCCN1C(=O)[C@@H]1CCCN1C(=O)[C@H](CCCN=C(N)N)NC(=O)[C@@H]1CCCN1C(=O)[C@@H]1CCCN1C(=O)[C@H](Cc1cnc[nH]1)NC(=O)[C@@H]1CCCN1C(=O)[C@@H]1CCCN1C(=O)[C@H](CCCN=C(N)N)NC(=O)[C@@H]1CCCN1C(=O)[C@@H]1CCCN1C(=O)[C@H](Cc1cnc[nH]1)NC(=O)[C@@H]1CCCN1C(=O)[C@@H]1CCCN1C(=O)[C@H](CCCN=C(N)N)NC(=O)[C@@H]1CCCN1)C(=O)O [PRPPHPPRPPHPPRPPHPRL]

MIC [32]: > 671 µM | MIC [13]: ≥ 335 µM
SMILES: CC(C)C[C@H](NC(=O)[C@H](Cc1ccccc1)NC(=O)[C@@H]1CCCN1C(=O)[C@H](Cc1c[nH]c2ccccc12)NC(=O)[C@H](Cc1c[nH]c2ccccc12)NC(=O)[C@H](Cc1c[nH]c2ccccc12)NC(=O)[C@@H]1CCCN1C(=O)[C@H](Cc1ccccc1)NC(=O)[C@@H](N)CCCN=C(N)N)C(=O)N[C@@H](CCCN=C(N)N)C(=O)O [RFPWWWPFLR]

MIC [33]: 55.6 µM (≈ 80 µg/mL) | MIC [3]: 27.8 µM (≈ 40 µg/mL) | MIC [34]: ≥ 55.6 µM
SMILES: CC[C@H](C)[C@H](NC(=O)[C@H](C)NC(=O)[C@H](CCCCN)NC(=O)[C@@H](NC(=O)[C@@H](NC(=O)[C@@H](N)C(C)C)[C@@H](C)CC)C(C)C)C(=O)N[C@@H](C)C(=O)N[C@H](C(=O)N[C@@H](CC(C)C)C(=O)N[C@@H](C)C(=O)N[C@@H](CO)C(=O)N[C@@H](CCCCN)C(=O)N[C@@H](CC(C)C)C(=O)N[C@@H](CC(C)C)C(=O)O)[C@@H](C)O [VIVKAIATLASKLL]

From DBAASP
